Measurements from ChEMBL document CHEMBL4811227, “Biosynthesis of Nonimmunosuppressive ProlylFK506 Analogues with Neurite Outgrowth and Synaptogenic Activity” (J Nat Prod, 2021).
The source made the active and inactive calls. No cut-off for these calls is given here.

Tests used:
CD4+ve Th [1] = assay: Immunosuppressive activity in C57BL/6J mouse CD4+ve T cells assessed as inhibition of CD3/CD28-stimulated CD4+ve T cell proliferation by measuring fold reduction incubated for 72 hrs by CellTrace-violet staining based flow cytometry analysis relative to FK506; format: functional
CD4+ve Th [2] = assay: Immunosuppressive activity in C57BL/6J mouse CD4+ve T cells assessed as inhibition of CD3/CD28-stimulated CD4+ve T cell proliferation incubated for 72 hrs by CellTrace-violet staining based flow cytometry analysis; format: functional
[3] = Neurotrophic activity in ICR mouse primary hippocampal neuron assessed as increase in relative spontaneous excitatory postsynaptic current frequency at -70 mV holding potential at 1 ng/ml incubated for 10 to 14 days in presence of bicuculline methiodide; format: functional; conditions: time 10-14 day
[4] = system: Primary hippocampal neuron; assay: Neurotrophic activity in ICR mouse primary hippocampal neuron assessed as induction of neurite outgrowth at 1 ng/ml measured after 48 hrs by photographic imaging analysis; format: functional, tissue-based

Structure (SMILES): CCC[C@@H]1/C=C(\C)C[C@H](C)C[C@H](OC)[C@H]2O[C@@](O)(CC(=O)N3CCC[C@H]3C(=O)O[C@H](/C(C)=C/[C@@H]3CC[C@@H](O)[C@H](O)C3)[C@H](C)[C@@H](O)CC1=O)[C@H](C)C[C@@H]2OC
- fold change (FC) (CD4+ve Th [1]): 220000
- IC50 (CD4+ve Th [2]): 7.27 µM
- Activity [3]: 2.63
- Activity [4]: Active

Structure (SMILES): C=CC[C@@H]1/C=C(\C)C[C@H](C)C[C@H](OC)[C@H]2O[C@@](O)(C(=O)C(=O)N3CCCC[C@H]3C(=O)O[C@H](/C(C)=C/[C@@H]3CC[C@@H](O)[C@H](OC)C3)[C@H](C)[C@@H](O)CC1=O)[C@H](C)C[C@@H]2OC [TACROLIMUS ANHYDROUS]
- IC50 (CD4+ve Th [2]): 3.4e-05 µM
- Activity [3]: 2.61

Structure (SMILES): CCC[C@@H]1/C=C(\C)C[C@H](C)C[C@H](OC)[C@H]2O[C@@](O)(C(=O)C(=O)N3CCC[C@H]3C(=O)O[C@H](/C(C)=C/[C@@H]3CC[C@@H](O)[C@H](OC)C3)[C@H](C)[C@@H](O)CC1=O)[C@H](C)C[C@@H]2OC
- fold change (FC) (CD4+ve Th [1]): 120000
- IC50 (CD4+ve Th [2]): 3.97 µM
- Activity [3]: 3.29
- Activity [4]: Active
